{"source": "patent US10980890B2", "about": "“Compounds comprising self-immolative group” (LegoChem Biosciences, Inc., priority 2014, dated 2021)", "test_in_all_cases": "Anti-proliferation assay of ADC (SRB)", "assay_type_in_all_cases": "cell-based, human", "conditions_in_all_cases": "72 hours, drug", "key": {"[1]": {"tested_on": "SK-Br3 (HER2 positive) breast cancer cell line", "method": "(§1) Anti-cell proliferation activities of antibodies, a drug, and ADC(s) illustrated in the following Table 2 on cancer cell lines were measured.\n(§2) As the cancer cell lines, commercialized human breast cancer cell lines MCF-7 (HER2-negative or -normal) and SK-Br3 (HER2 positive), and a commercialized ovarian cancer cell lines SK-OV3 (HER2 positive) were used. As the drug, MMAF was used.\nAfter 72 hours, the numbers of living cells were quantified using a Sulforhodamine B (SRB) dye."}, "[2]": {"tested_on": "MCF-7 (HER2-negative or -normal) breast cancer cell line", "method": "as §1, §2\n(§3) After each of the cancer cell lines was seeded in a 96-well plate at 10,000 cells/each well and cultured for 24 hours, the antibody and ADC were treated at a concentration of 0.01563-2 μg/ml (2 times serial dilution), and the drug was treated at a concentration of 4-500 nM (2 times serial dilution). After 72 hours, the numbers of living cells were quantified using a Sulforhodamine B (SRB) dye."}, "[3]": {"tested_on": "SK-OV3 (HER2 positive) ovarian cancer cell line", "method": "as §1, §2, §3"}}, "note": "Square brackets hold non-standard residues; d marks the D form. Peptide text beside a SMILES is read from it. Dolaproine = CO[C@@H]([C@@H]1CCCN1)[C@@H](C)C(=O)O; Dil = CC[C@H](C)[C@H](NC)[C@@H](CC(=O)O)OC; NMeV = CN[C@H](C(=O)O)C(C)C"}
{"compound": "CC[C@H](C)[C@@H]([C@@H](CC(=O)N1CCC[C@H]1[C@H](OC)[C@@H](C)C(=O)N[C@@H](Cc1ccccc1)C(=O)O)OC)N(C)C(=O)[C@@H](NC(=O)[C@@H](NC)C(C)C)C(C)C", "note": "[MMAF, monomethylauristatin F] (H-[NMeV]V[Dil][Dolaproine]F-OH)", "values": [{"measurement": "IC50", "setting": "[1]", "value": 136, "unit": "nM"}, {"measurement": "IC50", "setting": "[2]", "value": 142, "unit": "nM"}, {"measurement": "IC50", "setting": "[3]", "value": 227, "unit": "nM"}]}
